The term inhibition denotes how much of the control response was suppressed. For orientation: DC50 means the concentration at which degradation of the target reaches its halfway point. A low value points to a more potent degrader. In general, Dmax refers to the largest share of the target that was removed. A lower Dmax goes with a partial loss of target.

Structures are written as SMILES. Bounds are passed on as bounds.

Test [1] addresses T1, KAT6A (Homo sapiens, UniProt Q92794).
T1 construct: These studies were conducted in the HCC1954 cell line which harbors a KAT6A copy number amplification; endogenous in cells; host or cells: HCC1954
Kind of test: Western Blot KAT6A Degradation Assessment. The class given is cell-based. To be noted: 0.1 μM compound, 24 hours of treatment, HCC1954 cell line, KAT6A normalized to GAPDH and DMSO. How it is done:
The activity of compounds was evaluated by measuring KAT6A protein levels as a readout of KAT6A degradation ability using western blot. These studies were conducted in the HCC1954 cell line which harbors a KAT6A copy number amplification. Cells were maintained in a 37° C. incubator at 5% CO2 in the following media: RPMI 1640, ATCC© Modification (Gibco, A10491-01) supplemented with 10% v/v FBS (Gibco, 26140-079) and 1% penicillin streptomycin (Gibco, 15140-122). Cells were seeded in 6-well plates at a density of 300,000 cells/well and allowed to attach overnight in an incubator. Compounds dissolved in DMSO were prepared at 1000× the desired final concentration such that the final percentage of DMSO was 0.1%. After 24 hours of treatment, cells were washed with phosphate buffered saline (PBS) (Corning, 21-040-CV), detached with trypsin-EDTA (Gibco, #25200-056), and pelleted in complete RPMI media in a microcentrifuge for 5 min at 1500 rpm. Protein was extracted from cell pellets by re-suspending in 15 uL PBS before adding 45 uL of lysis buffer composed of 4% SDS, 1× protease and phosphatase inhibitors, and 1 mM PMSF (Cell Signaling Technology, #8553S). Lysates were transferred to homogenizer columns (Omega Biotek, #HCR003) and centrifuged for 1.5 min at 12,000 rpm.
Homogenized lysates were quantified by BCA assay (ThermoScientific, Pierce BCA Protein Assay, #23223, #23224) as per manufacturer instructions. Samples were then diluted in 4× Laemmli buffer (Biorad, #1610747) to a 1× solution which was boiled at 95° C. for 5 minutes. To assess KAT6A protein expression, samples were run on 26 well gels (Biorad, 4-15% Criterion TGX Precast gels, #5671085) at 120V for approximately 1 hour. Protein was transferred to low-fluorescence PVDF membranes (Millipore Sigma, #IPFL00010) using Trans-Blot Turbo Transfer System (Biorad). Membranes were then probed with KAT6A (Cell Signaling Technology, #78462) and GAPDH (Cell Signaling Technology, #5174S) primary, and fluorescently tagged secondary antibodies (LI-COR, IRDye 800CW Goat anti-rabbit #926-32211; IRDye 680RD Goat anti-mouse #926-68070) at manufacturer recommended conditions using the iBind Flex western device (Thermofisher, SLF2000). Membranes were washed briefly in water and scanned with a LI-COR Odyssey CLx. Quantification of bands was assessed using Image Studio Ver 5.2. to normalize KAT6A expression to GAPDH loading controls before representing KAT6A expression as a percentage of that observed in DMSO.
In general terms: A western blot detects proteins with antibodies after separation by electrophoresis.

In test [2] the target is T2, HiBit tagged KAT6A (Homo sapiens, UniProt Q92794).
T2 construct: host or cells: HeLa
Kind of test: HiBit KAT6A Degradation Assessment. Conditions: HeLa cells with HiBit tagged KAT6A, 18 h of treatment, 9-point serial dilution. The test is classed as cell-based. How it is done:
The degradation activity of compounds was evaluated by measuring levels of KAT6A protein using the HiBiT system. These studies were conducted in HeLa cells with a HiBit tagged KAT6A. Cells were maintained in a 37° C. incubator at 5% CO2 in EMEM (ATCC, 30-2003) supplemented with 10% v/v FBS (Gibco, 26140-079) and 1% penicillin streptomycin. Cells were seeded in 384-well plates at a density of 2,000 cells/well. Compounds dissolved in DMSO were added in 9-point serial dilution. After 18 h of treatment, KAT6A levels were measured using the Nano-Glo® HiBiT Lytic Detection System (Promega catalog number N3030) per manufacturer's instructions. Luminescence signal was measured with a multimode plate reader (Envision 2105, Perkin Elmer). Luminescence values were normalized to background and DMSO controls to quantify KAT6A for each condition. Results were analyzed, and DC50 and Dmax values obtained using a four-parameter logistic curve fit.

T1 sequence (Q92794 whole entry): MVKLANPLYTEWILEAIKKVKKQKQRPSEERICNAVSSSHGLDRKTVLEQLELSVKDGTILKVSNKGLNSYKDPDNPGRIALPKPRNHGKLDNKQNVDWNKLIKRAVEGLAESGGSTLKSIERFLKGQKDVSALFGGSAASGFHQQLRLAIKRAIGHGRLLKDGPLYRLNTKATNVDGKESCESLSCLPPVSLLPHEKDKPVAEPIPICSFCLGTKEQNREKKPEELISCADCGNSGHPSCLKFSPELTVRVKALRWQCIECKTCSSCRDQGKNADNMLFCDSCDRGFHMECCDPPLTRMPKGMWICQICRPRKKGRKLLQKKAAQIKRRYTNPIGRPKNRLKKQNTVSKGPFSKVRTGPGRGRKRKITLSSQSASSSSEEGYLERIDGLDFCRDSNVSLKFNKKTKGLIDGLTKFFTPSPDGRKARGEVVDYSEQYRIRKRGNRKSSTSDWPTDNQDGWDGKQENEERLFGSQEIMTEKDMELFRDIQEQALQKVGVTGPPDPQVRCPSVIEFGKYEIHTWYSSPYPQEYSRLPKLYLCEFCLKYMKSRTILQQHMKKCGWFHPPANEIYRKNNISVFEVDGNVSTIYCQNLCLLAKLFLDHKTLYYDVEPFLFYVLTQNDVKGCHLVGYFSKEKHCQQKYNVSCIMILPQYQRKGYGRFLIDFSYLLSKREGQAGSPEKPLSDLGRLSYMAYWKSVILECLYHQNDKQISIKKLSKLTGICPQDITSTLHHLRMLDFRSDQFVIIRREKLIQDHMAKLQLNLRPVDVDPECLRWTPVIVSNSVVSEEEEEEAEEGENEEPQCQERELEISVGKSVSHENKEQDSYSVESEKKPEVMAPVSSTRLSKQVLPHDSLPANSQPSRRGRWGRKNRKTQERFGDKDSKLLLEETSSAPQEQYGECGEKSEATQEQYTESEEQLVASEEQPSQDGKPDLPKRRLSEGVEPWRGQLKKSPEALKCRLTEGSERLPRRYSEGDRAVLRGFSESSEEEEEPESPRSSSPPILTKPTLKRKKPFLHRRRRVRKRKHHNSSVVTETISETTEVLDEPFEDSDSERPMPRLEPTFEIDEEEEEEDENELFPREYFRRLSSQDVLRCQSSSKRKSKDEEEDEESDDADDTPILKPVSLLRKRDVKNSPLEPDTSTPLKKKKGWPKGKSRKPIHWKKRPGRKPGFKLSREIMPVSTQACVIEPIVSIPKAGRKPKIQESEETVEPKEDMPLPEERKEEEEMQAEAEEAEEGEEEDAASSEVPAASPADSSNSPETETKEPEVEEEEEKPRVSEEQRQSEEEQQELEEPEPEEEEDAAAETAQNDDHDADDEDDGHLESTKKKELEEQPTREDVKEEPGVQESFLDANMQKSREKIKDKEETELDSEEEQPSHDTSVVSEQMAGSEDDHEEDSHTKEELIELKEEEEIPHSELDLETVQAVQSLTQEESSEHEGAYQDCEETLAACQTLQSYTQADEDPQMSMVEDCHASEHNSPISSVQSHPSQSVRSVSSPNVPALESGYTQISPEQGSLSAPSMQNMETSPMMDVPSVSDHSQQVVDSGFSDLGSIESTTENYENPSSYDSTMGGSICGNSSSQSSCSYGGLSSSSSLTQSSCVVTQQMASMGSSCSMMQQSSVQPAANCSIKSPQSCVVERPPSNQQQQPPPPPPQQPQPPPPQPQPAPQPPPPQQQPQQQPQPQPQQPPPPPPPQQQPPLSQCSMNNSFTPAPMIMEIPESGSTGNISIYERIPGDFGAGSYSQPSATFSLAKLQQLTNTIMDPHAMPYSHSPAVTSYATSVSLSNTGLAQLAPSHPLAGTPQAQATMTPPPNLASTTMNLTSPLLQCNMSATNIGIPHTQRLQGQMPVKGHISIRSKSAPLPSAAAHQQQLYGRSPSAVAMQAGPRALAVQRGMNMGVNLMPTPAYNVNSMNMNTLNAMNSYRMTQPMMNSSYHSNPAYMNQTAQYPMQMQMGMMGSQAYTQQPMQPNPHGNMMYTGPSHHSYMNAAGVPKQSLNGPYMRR
T2 sequence (Q92794 whole entry): as above

With `COc1cc(Cn2cccn2)cc2onc(NS(=O)(=O)c3cccc(N4CCN(C5CC6(CCN(c7ccc8c(c7)C(=O)N(C7CCC(=O)NC7=O)C8=O)CC6)C5)CC4)c3)c12` (stereo not drawn) [Example 4, 3-[4-[7-[2-(2,6-Dioxopiperidin-3-yl)-1,3-dioxoisoindol-5-yl]-7-azaspiro[3.5]nonan-2-yl]piperazin-1-yl]-N-[4-methoxy-6-(pyrazol-1-ylmethyl)-1,2-benzoxazol-3-yl]benzenesulfonamide], in test [1], the inhibition at 0.1 µM lay in the range of 50 to 75%. In test [2], this compound registered a DC50 of 10 to 100 nM and a Dmax of more than 75%.
In turn, `COc1cc(Cn2cccn2)cc2onc(NS(=O)(=O)c3cccc(N4CCN(CCCC5CCN(c6ccc7c(c6)C(=O)N(C6CCC(=O)NC6=O)C7=O)CC5)CC4)c3)c12` (stereo not drawn) [Example 2, N-(6-((1H-Pyrazol-1-yl)methyl)-4-methoxybenzo[d]isoxazol-3-yl)-3-(4-(3-(1-(2-(2,6-dioxopiperidin-3-yl)-1,3-dioxoisoindolin-5-yl)piperidin-4-yl)propyl)piperazin-1-yl)benzenesulfonamide] gave an inhibition at 0.1 µM in test [1] of 50 to 75%. The Dmax in test [2] fell in the range of 25 to 50%.
In test [1], `COc1cc(Cn2cccn2)cc2onc(NS(=O)(=O)c3cccc(N4CC5(CN(CC6CCN(c7ccc8c(c7)C(=O)N(C7CCC(=O)NC7=O)C8=O)C6)C5)C4)c3)c12` (stereo not drawn) [Example 11, 3-[6-[[1-[2-(2,6-dioxopiperidin-3-yl)-1,3-dioxoisoindol-5-yl]pyrrolidin-3-yl]methyl]-2,6-diazaspiro[3.3]heptan-2-yl]-N-[4-methoxy-6-(pyrazol-1-ylmethyl)-1,2-benzoxazol-3-yl]benzenesulfonamide] returned an inhibition at 0.1 µM of 50 to 75%. Further, in test [2], the DC50 lay in the range of 10 to 100 nM and the Dmax fell in the range of 50 to 75%.
As for `COc1cc(Cn2cccn2)cc2onc(NS(=O)(=O)c3cccc(N4CCN(C5CC6(CCN(c7ccc8c(c7)C(=O)N(C7CCC(=O)NC7=O)C8=O)C6)C5)CC4)c3)c12` (stereo not drawn) [Example 8, 3-[4-[6-[2-(2,6-Dioxopiperidin-3-yl)-1,3-dioxoisoindol-5-yl]-6-azaspiro[3.4]octan-2-yl]piperazin-1-yl]-N-[4-methoxy-6-(pyrazol-1-ylmethyl)-1,2-benzoxazol-3-yl]benzenesulfonamide], the inhibition at 0.1 µM in test [1] was more than 75%. Besides, in test [2], the 50% degradation concentration (DC50) fell in the range of 10 to 100 nM and the Dmax lay within 50 to 75%.
For `COc1cc(Cn2cccn2)cc2onc(NS(=O)(=O)c3cccc(N4CCN(CC5CCN(c6ccc7c(c6)C(=O)N(C6CCC(=O)NC6=O)C7=O)C5)CC4)c3)c12` (stereo not drawn) [Example 1, N-(6-((1H-Pyrazol-1-yl)methyl)-4-methoxybenzo[d]isoxazol-3-yl)-3-(4-((1-(2-(2,6-dioxopiperidin-3-yl)-1,3-dioxoisoindolin-5-yl)pyrrolidin-3-yl)methyl)piperazin-1-yl)benzenesulfonamide] the same measures were 50 to 75%, 100 to 1000 nM and 50 to 75%.
As for `COc1cc(Cn2cccn2)cc2onc(NS(=O)(=O)c3cccc(N4CCN(CC5CCN(c6ccc7c(c6)CN(C6CCC(=O)NC6=O)C7=O)C5)CC4)c3)c12` (stereo not drawn) [Example 10, 3-[4-[[1-[2-(2,6-Dioxopiperidin-3-yl)-1-oxo-3H-isoindol-5-yl]pyrrolidin-3-yl]methyl]piperazin-1-yl]-N-[4-methoxy-6-(pyrazol-1-ylmethyl)-1,2-benzoxazol-3-yl]benzenesulfonamide], the inhibition at 0.1 µM in test [1] lay within 50 to 75%. In test [2], this compound registered a Dmax of 25 to 50%.
`COc1cc(Cn2cccn2)cc2onc(NS(=O)(=O)c3cccc(N4CCC(CN5CCN(c6ccc7c(c6)c6cccnc6n7C6CCC(=O)NC6=O)CC5)C4)c3)c12` (stereo not drawn) [Example 6, 3-[3-[[4-[9-(2,6-Dioxopiperidin-3-yl)pyrido[2,3-b]indol-6-yl]piperazin-1-yl]methyl]pyrrolidin-1-yl]-N-[4-methoxy-6-(pyrazol-1-ylmethyl)-1,2-benzoxazol-3-yl]benzenesulfonamide] gave an inhibition at 0.1 µM in test [1] of 50 to 75%. Besides, in test [2], the DC50 lay within 10 to 100 nM and the Dmax fell in the range of 50 to 75%.
Compound `COc1cc(Cn2cccn2)cc2onc(NS(=O)(=O)c3cccc(N4CC5(CCN(CC6CCN(c7ccc8c(c7)C(=O)N(C7CCC(=O)NC7=O)C8=O)C6)CC5)C4)c3)c12` (stereo not drawn) [Example 5, 3-[7-[[1-[2-(2,6-Dioxopiperidin-3-yl)-1,3-dioxoisoindol-5-yl]pyrrolidin-3-yl]methyl]-2,7-diazaspiro[3.5]nonan-2-yl]-N-[4-methoxy-6-(pyrazol-1-ylmethyl)-1,2-benzoxazol-3-yl]benzenesulfonamide] displayed an inhibition at 0.1 µM in test [1] of more than 75%. In test [2], this compound returned a DC50 of less than 10 nM and a Dmax of more than 75%.
In test [1], `COc1cc(Cn2cccn2)cc2onc(NS(=O)(=O)c3cccc(N4CCN(CC5CCN(CC6CCN(c7ccc8c(c7)C(=O)N(C7CCC(=O)NC7=O)C8=O)CC6)CC5)CC4)c3)c12` (stereo not drawn) [Example 7, 3-[4-[[1-[[1-[2-(2,6-Dioxopiperidin-3-yl)-1,3-dioxoisoindol-5-yl]piperidin-4-yl]methyl]piperidin-4-yl]methyl]piperazin-1-yl]-N-[4-methoxy-6-(pyrazol-1-ylmethyl)-1,2-benzoxazol-3-yl]benzenesulfonamide] yielded an inhibition at 0.1 µM of more than 75%. For the same compound, in test [2], the DC50 is less than 10 nM and the greatest degradation seen (Dmax) is more than 75%.
In test [1], `COc1cc(Cn2cccn2)cc2onc(NS(=O)(=O)c3cccc(N4CCN(CCC5CCN(c6ccc7c(c6)C(=O)N(C6CCC(=O)NC6=O)C7=O)CC5)CC4)c3)c12` (stereo not drawn) [Example 3, N-(6-((1H-Pyrazol-1-yl)methyl)-4-methoxybenzo[d]isoxazol-3-yl)-3-(4-(2-(1-(2-(2,6-dioxopiperidin-3-yl)-1,3-dioxoisoindolin-5-yl)piperidin-4-yl)ethyl)piperazin-1-yl)benzenesulfonamide] gave an inhibition at 0.1 µM of 0 to 50%. In test [2], the DC50 lay within 10 to 100 nM and the Dmax is 50 to 75%.
For `COc1cc(Cn2cccn2)cc2onc(NS(=O)(=O)c3cccc(N4CCN(CCC5CCN(c6ccc7c(c6)C(=O)N(C6CCC(=O)NC6=O)C7=O)C5)CC4)c3)c12` (stereo not drawn) [Example 9, 3-[4-[2-[1-[2-(2,6-Dioxopiperidin-3-yl)-1,3-dioxoisoindol-5-yl]pyrrolidin-3-yl]ethyl]piperazin-1-yl]-N-[4-methoxy-6-(pyrazol-1-ylmethyl)-1,2-benzoxazol-3-yl]benzenesulfonamide] the same measures were 0 to 50%, 10 to 100 nM and 50 to 75%.
In test [2], `COc1cc(Cn2cccn2)cc2onc(NS(=O)(=O)c3cccc(N4CCN(CC5CCN(c6ccc7c(c6)C(=O)N(C6CCC(=O)NC6=O)C7=O)C5)C(C)(C)C4)c3)c12` (stereo not drawn) [Example 21, N-(6-((1H-Pyrazol-1-yl)methyl)-4-methoxybenzo[d]isoxazol-3-yl)-3-(4-((1-(2-(2,6-dioxopiperidin-3-yl)-1,3-dioxoisoindolin-5-yl)pyrrolidin-3-yl)methyl)-3,3-dimethylpiperazin-1-yl)benzenesulfonamide] registered a DC50 of 100 to 1000 nM and a Dmax of 50 to 75%.

The values above are taken from US20230416240A1, “KAT6 TARGETING COMPOUNDS” (Prelude Therapeutics Incorporated, priority 2022, published 2023).
